In experiment [1] the test system is Plasmodium falciparum strain NF54. Put plainly: Growth inhibition of Plasmodium falciparum NF54 (chloroquine-sensitive) in vitro, [G-3H]-hypoxanthin incorporation. Type of experiment: cell-based. The note with it: read-out: IC50 for P. falciparum NF54. Put shortly: (§1)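 Asynchronous intraerythrocytic cultures in human A+ erythrocytes (0.7% parasitemia, 2.5% suspension) in RPMI 1640 with HEPES, NaHCO3 and human serum, exposed to compound titrated over 6-7 steps for 72 h at 37° C, 3% O2. Growth by [G-3H]-hypoxanthin incorporation against untreated controls; IC50 by logit regression.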

For another experiment, the system named is Plasmodium falciparum K1. Description: Growth inhibition of Plasmodium falciparum K1 (chloroquine-resistant) in vitro, [G-3H]-hypoxanthin incorporation. Format: cell-based, Plasmodium falciparum (strain K1). As to conditions: for IC50: Plasmodium falciparum, K1, 72 h, read-out: IC50 for P. falciparum K1; for Resistance index: ratio of the IC50 for K1 and the IC50 for NF54. Put shortly:
as §1

For a further experiment, the system named is Plasmodium berghei. Description: animal or person. Type of experiment: in vivo, Plasmodium berghei (strain ANKA) in mice. The note with it: Plasmodium berghei. The gist of the method: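 Male albino mice (~25 g) infected i.v. on D0 with P. berghei ANKA (0.2 ml of 10^8 parasitized erythrocytes/ml); single s.c. and p.o. dose 24 h post-infection, 10 mg/kg screen then titration.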

Where [2] appears, read: chloroquine-sensitive strain NF54, 72 h.
Setting [3] is: po, single peroral dose of 10 mg/kg, mice, blood smears 48 h after treatment, read-out: Growth inhibition in % after po administration (GI%, percentage reduction of the parasitemia).
Where [4] appears, read: sc, single subcutaneous dose of 10 mg/kg, mice, blood smears 48 h after treatment, read-out: Growth inhibition in % after sc administration (GI%, percentage reduction of the parasitemia).

The structures appear in SMILES notation. ≈ marks a conversion by molar mass, not a printed value. Where a name gives a salt, the structure may show the parent alone. Read-outs that look alike come from different tables or passages of the source.

Drawing on patent publication US5948791A, “Quinoline derivatives for treating malaria” (Hoffmann-La Roche Inc., priority 1995, dated 1999), this text covers IC50, Resistance index and inhibition in vivo for 15 compounds.

On to `COc1cc(CCN[C@H]2CC[C@H](Nc3ccnc4cc(Cl)ccc34)CC2)cc(OC)c1.Cl.Cl` [Example 94, trans-N1-(7-Chloro-quinolin-4-yl)-N4-[2-(3,5-dimethoxy-phenyl)-ethyl]-cyclohexane-1,4-diamine dihydrochloride], for which the IC50 (commonly the concentration at which inhibition is half-maximal) in experiment [1] (setting [2]) was found to be 2.9 ng/mL; in the experiment on Plasmodium falciparum K1, 9.8 ng/mL. The Resistance index with Plasmodium falciparum K1 is reported as 3.4. Moreover, the inhibition in vivo at 10 mg/kg came to 99% in the experiment with Plasmodium berghei (setting [3]) and 99.9% in the experiment with Plasmodium berghei (setting [4]).

Consider `COc1cc(CNC(C)(C)CNc2ccnc3cc(Cl)ccc23)cc(OC)c1.Cl.Cl` [Example 40, N1-(7-Chloro-quinolin-4-yl)-N2-(3,5-dimethoxy-benzyl)-2-methyl-propane-1,2-diamine dihydrochloride], for which the IC50 in experiment [1] (setting [2]) is 3.6 ng/mL; in the experiment on Plasmodium falciparum K1, 7.1 ng/mL. In the experiment with Plasmodium falciparum K1, the Resistance index stood at 2.0. Also, the inhibition in vivo at 10 mg/kg came out at 84% in the experiment with Plasmodium berghei (setting [3]) and 95% in the experiment with Plasmodium berghei (setting [4]).

Regarding `Cl.Cl.Fc1cc(CN[C@H]2CC[C@@H](Nc3ccnc4cc(Cl)ccc34)CC2)ccc1Cl` [Example 76, cis-N1-(7-Chloro-quinolin-4-yl)-N4-(4-chloro-3-fluoro-benzyl)-cyclohexane-1,4-diamine dihydrochloride], the IC50 in experiment [1] (setting [2]) is 7.2 ng/mL; with Plasmodium falciparum K1, 6.1 ng/mL. Moreover, the Resistance index in the experiment with Plasmodium falciparum K1 amounted to 0.8. Also, the inhibition in vivo at 10 mg/kg with Plasmodium berghei (setting [3]) and in the experiment on Plasmodium berghei (setting [4]) was 96% in each case.

With `CC(C)(CNc1ccnc2cc(Cl)ccc12)NCc1c(Cl)cccc1Cl` [Example 12, N1-(7-Chloro-quinolin-4-yl)-N2-(2,6-dichloro-benzyl)-2-methyl-propane-1,2-diamine], the concentration for half-maximal inhibition (IC50) in experiment [1] (setting [2]) was 84.7 ng/mL (≈ 0.207 µM); in the experiment on Plasmodium falciparum K1, 197 ng/mL (≈ 0.482 µM). The Resistance index in the experiment with Plasmodium falciparum K1 stood at 2.3. The results for the inhibition in vivo at 10 mg/kg in the experiment with Plasmodium berghei (setting [3]) and in the experiment on Plasmodium berghei (setting [4]) were 98% and 4%, respectively.

With `Cl.Cl.Clc1ccc2c(N[C@H]3CC[C@@H](NCc4ccccc4)CC3)ccnc2c1` [Example 70, cis-N1-(7-Chloro-quinolin-4-yl)-N4-(benzyl)-cyclohexane-1,4-diamine dihydrochloride], the IC50 in experiment [1] (setting [2]) came out at 3.8 ng/mL; in the experiment on Plasmodium falciparum K1 it was 6.6 ng/mL. For the same compound, the Resistance index in the experiment with Plasmodium falciparum K1 is listed as 1.7. Further, the inhibition in vivo at 10 mg/kg in the experiment on Plasmodium berghei (setting [3]) and in the experiment with Plasmodium berghei (setting [4]) was 99.9% throughout.

Turning to `Cl.Cl.Clc1ccc2c(N[C@H]3CC[C@H](NCCc4ccc5c(c4)OCO5)CC3)ccnc2c1` [Example 95, trans-N1-(2-Benzo[1,3]dioxol-5-yl-ethyl)-N4-(7-chloro-quinolin-4-yl)-cyclohexane-1,4-diamine dihydrochloride], the IC50 in experiment [1] (setting [2]) amounted to 2.7 ng/mL; in the experiment with Plasmodium falciparum K1 it was 9.3 ng/mL. Besides, in the experiment on Plasmodium falciparum K1, the Resistance index is given as 3.4. The inhibition in vivo at 10 mg/kg amounted to 98% with Plasmodium berghei (setting [3]) and 99.7% in the experiment on Plasmodium berghei (setting [4]).

Consider `COc1ccc(CN[C@H]2CC[C@@H](Nc3ccnc4cc(Cl)ccc34)CC2)c(OC)c1.Cl.Cl` [Example 81, cis-N1-(7-Chloro-quinolin-4-yl)-N4-(2,4-dimethoxy-benzyl)-cyclohexane-1,4-diamine dihydrochloride], for which the IC50 in experiment [1] (setting [2]) was determined as 4.3 ng/mL; in the experiment on Plasmodium falciparum K1 it was 9.7 ng/mL. Also, in the experiment with Plasmodium falciparum K1, the Resistance index came out at 2.3. The inhibition in vivo at 10 mg/kg in the experiment on Plasmodium berghei (setting [3]) and in the experiment with Plasmodium berghei (setting [4]) was 100% throughout.

In the case of `Cl.Cl.Clc1ccc(CN[C@H]2CC[C@H](Nc3ccnc4cc(Cl)ccc34)CC2)c(Cl)c1` [Example 109, trans-N1-(7-Chloro-quinolin-4-yl)-N4-(2,4-dichloro-benzyl)-cyclohexane-1,4-diamine dihydrochloride], the 50% inhibitory concentration (IC50) in experiment [1] (setting [2]) was 1.8 ng/mL; with Plasmodium falciparum K1, 3.8 ng/mL. For the same compound, the Resistance index in the experiment on Plasmodium falciparum K1 came to 2.1. The inhibition in vivo at 10 mg/kg was determined as 75% with Plasmodium berghei (setting [3]) and 91% with Plasmodium berghei (setting [4]).

For the compound `CSc1ccc(CN[C@H]2CC[C@@H](Nc3ccnc4cc(Cl)ccc34)CC2)cc1.Cl.Cl` [Example 83, cis-N1-(7-Chloro-quinolin-4-yl)-N4-(4-methylsulphanyl-benzyl)-cyclohexane-1,4-diamine dihydrochloride], the IC50 in experiment [1] (setting [2]) came to 8.6 ng/mL; in the experiment with Plasmodium falciparum K1 it was 5.9 ng/mL. Also, the Resistance index with Plasmodium falciparum K1 was 0.7. For the same compound, the inhibition in vivo at 10 mg/kg in the experiment with Plasmodium berghei (setting [3]) and with Plasmodium berghei (setting [4]) was 100% each time.

On to `CC(C)(CNc1ccnc2cc(Cl)ccc12)NCc1ccccc1` [Example 24, N1-(7-Chloro-quinolin-4-yl)-N2-(benzyl)-2-methyl-propane-1,2-diamine dihydrochloride], for which the IC50 was 7.9 ng/mL in experiment [1] (setting [2]) and 13.2 ng/mL in the experiment with Plasmodium falciparum K1. Further, in the experiment on Plasmodium falciparum K1, the Resistance index is listed as 1.7. Further, the inhibition in vivo at 10 mg/kg in the experiment with Plasmodium berghei (setting [3]) is 81%; in the experiment on Plasmodium berghei (setting [4]), 95%.

On to `Cl.Cl.Clc1ccc2c(N[C@H]3CCCC[C@@H]3NCc3ccccc3)ccnc2c1` [Example 60, (1S,2S)-N1-(7-Chloro-quinolin-4-yl)-N2-(benzyl)-cyclohexane-1,2-diamine hydrochloride (1:2)], for which the IC50 in experiment [1] (setting [2]) turned out to be 7.7 ng/mL; in the experiment with Plasmodium falciparum K1 it was 12.2 ng/mL. For the same compound, the Resistance index with Plasmodium falciparum K1 stood at 1.6. In addition, the inhibition in vivo at 10 mg/kg amounted to 67% in the experiment with Plasmodium berghei (setting [3]) and 87% in the experiment with Plasmodium berghei (setting [4]).

For `COc1ccc(O)c(CNC(C)(C)CNc2ccnc3cc(Cl)ccc23)c1.Cl.Cl` [Example 31, N1-(7-Chloro-quinolin-4-yl)-N2-(2-hydroxy-5-methoxy-benzyl)-2-methyl-propane-1,2-diamine dihydrochloride], the half-inhibitory concentration (IC50) in experiment [1] (setting [2]) was found to be 6.5 ng/mL; in the experiment with Plasmodium falciparum K1, 9.9 ng/mL. Moreover, the Resistance index with Plasmodium falciparum K1 is recorded as 1.5. In addition, the inhibition in vivo at 10 mg/kg with Plasmodium berghei (setting [3]) was 39%; with Plasmodium berghei (setting [4]), 98%.

Take `CN(C)c1ccc(CN[C@H]2CC[C@@H](Nc3ccnc4cc(Cl)ccc34)CC2)cc1.Cl.Cl.Cl` [Example 69, cis-N1-(7-Chloro-quinolin-4-yl)-N4-(4-dimethylamino-benzyl)-cyclohexane-1,4-diamine trihydrochloride]: the figures for the IC50 (in experiment [1] (setting [2]); in the experiment on Plasmodium falciparum K1) were 3.7 ng/mL and 4.6 ng/mL, respectively. For the same compound, the Resistance index in the experiment with Plasmodium falciparum K1 came out at 1.2. Besides, the inhibition in vivo at 10 mg/kg with Plasmodium berghei (setting [3]) and in the experiment with Plasmodium berghei (setting [4]) was 100% each time.

Take `CCN(CC)CCCC(C)Nc1ccnc2cc(Cl)ccc12` (stereo not drawn) [Chloroquine diphosphate, reference compound]: the IC50 in experiment [1] (NF54, 72 h) was 6.7 ng/mL; with Plasmodium falciparum K1, 95 ng/mL. Further, the Resistance index with Plasmodium falciparum K1 is reported as 14.2. The inhibition in vivo at 10 mg/kg with Plasmodium berghei (in Mus musculus, po, 48 h, read-out: Growth inhibition in % after po administration (GI%, percentage reduction of the parasitemia)) was 99.9%; in the experiment on Plasmodium berghei (in Mus musculus, sc, 48 h, read-out: Growth inhibition in % after sc administration (GI%, percentage reduction of the parasitemia)) it was 99.9%.

As for `Cl.Cl.Clc1ccc2c(N[C@H]3CC[C@H](NCCc4ccc(Oc5ccccc5)cc4)CC3)ccnc2c1` [Example 98, trans-N1-(7-Chloro-quinolin-4-yl)-N4-[2-(4-phenoxy-phenyl)-ethyl]-cyclohexane-1,4-diamine dihydrochloride], the IC50 in experiment [1] (setting [2]) turned out to be 4.5 ng/mL; with Plasmodium falciparum K1 it was 8.5 ng/mL. Also, the Resistance index with Plasmodium falciparum K1 stood at 1.9. Moreover, the figures for the inhibition in vivo at 10 mg/kg in the experiment with Plasmodium berghei (setting [3]) and in the experiment with Plasmodium berghei (setting [4]) were 50% and 93%, respectively.
